Read-outs that look alike come from different tables or passages of the source.
Columns and labels:
GR = molecular target: T1, GR (Homo sapiens, UniProt P04150); assay: 3H-ligand displacement assay on cells, GR (DU145); type: binding; conditions: for selectivity for GR over other subfamily 3 nuclear hormone receptors: relative affinity
T1 construct: evaluated using ^3H-ligand displacement assays on cells; endogenous in cells; host or cells: DU145
T1 sequence (P04150 1-777): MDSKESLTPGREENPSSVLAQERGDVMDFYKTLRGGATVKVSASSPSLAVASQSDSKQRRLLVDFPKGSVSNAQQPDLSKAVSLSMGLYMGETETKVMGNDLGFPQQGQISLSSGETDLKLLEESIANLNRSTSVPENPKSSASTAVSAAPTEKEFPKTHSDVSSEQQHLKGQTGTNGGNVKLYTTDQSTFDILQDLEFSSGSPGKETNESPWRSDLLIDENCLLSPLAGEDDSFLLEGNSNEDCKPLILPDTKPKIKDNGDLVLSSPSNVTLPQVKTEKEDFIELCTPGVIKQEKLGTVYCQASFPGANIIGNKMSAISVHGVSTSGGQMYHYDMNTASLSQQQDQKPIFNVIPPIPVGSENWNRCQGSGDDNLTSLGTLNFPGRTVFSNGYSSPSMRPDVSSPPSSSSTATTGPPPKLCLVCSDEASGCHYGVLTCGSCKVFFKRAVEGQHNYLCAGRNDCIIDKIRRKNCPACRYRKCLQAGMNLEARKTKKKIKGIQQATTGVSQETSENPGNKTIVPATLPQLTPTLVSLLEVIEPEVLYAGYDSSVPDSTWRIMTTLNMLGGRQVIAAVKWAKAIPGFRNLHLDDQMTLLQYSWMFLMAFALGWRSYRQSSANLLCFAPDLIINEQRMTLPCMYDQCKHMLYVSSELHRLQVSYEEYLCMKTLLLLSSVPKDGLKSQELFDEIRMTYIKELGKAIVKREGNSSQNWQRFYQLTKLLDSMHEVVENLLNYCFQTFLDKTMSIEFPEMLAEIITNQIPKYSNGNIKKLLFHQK
Description: The affinity of YJH08 for GR and the other type 1 subfamily 3 nuclear hormone receptors was evaluated using ^3H-ligand displacement assays on cells. The Kd for subfamily 3 class C nuclear hormone receptors was determined on cells by displacing ^3H-steroidal agonists for the respective receptor. […] The Kd was determined using the following cell lines: DU145 (GR), LNCaP-AR (AR), MCF7 (PR, ER), and HEK293 transiently overexpressing full length human MR.
The cold ligands and ^3H-steroids were co-incubated on cells in PBS at room temperature for one hour. Following incubation, the cells were washed twice with ice cold PBS and the unbound activity was retained for analysis. The cells were lysed with 1 mL of 1M NaOH and collected. Bound and unbound fractions were counted in a liquid scintillation counter and expressed as a percentage of the total activity added per equal relative number of cells. […] These experiments were performed at three concentrations of experimental ligand (1 pM, 100 nM and 10 μM), and a linear extrapolation was used to subtract the non-specific component of binding from each treatment condition. The specific binding component was plotted against the log of the competing ligand and curve fit using a non-linear regression algorithm with PRISM software.

plasma protein = assay: Plasma protein binding, rapid equilibrium dialysis, mouse plasma; type: in vitro ADME; conditions: plasma (rapid equilibrium dialysis device), pH 7.4, mouse plasma
Description: (§1) Plasma Protein Binding Studies. The rapid equilibrium dialysis (RED) device inserts along with a Teflon base plate (Pierce, Rockford, Ill.) were used for the binding studies. The pH of the human or mouse plasma was adjusted to 7.4 prior to the experiment. DMSO stocks (1 mM) were spiked into the plasma to make a final concentration of 2 μM. The spiked plasma solutions (300 μL) were placed into the sample chamber (indicated by the red ring); and 500 μL of PBS buffer, pH 7.4, was placed into the adjacent chamber. The plate was incubated at 37° C. on an orbital shaker (250 rpm) for 4 hours.
(§2) After 4 hours, from the RED plate, aliquots (100 μL) were removed from each side of the insert (plasma and buffer) and dispensed into the 96-well plate. Subsequently, 100 μL of blank plasma was added to the buffer samples and 100 μL of blank buffer was added to all the collected plasma samples. 300 μL of quench solution (50% acetonitrile, 50% methanol, and 0.05% formic acid, warmed up at 37° C.) containing internal standards was added to each well. Plates were sealed, vortexed, and centrifuged at 4° C. for 15 minutes at 4000 rpm. The supernatant was transferred to fresh plates for LC/MS/MS analysis. The sample were analyzed on LC/MS/MS using an AB Sciex API 4000 instrument, coupled to a Shimadzu LC-20AD LC Pump system. Analytical samples were separated using a Waters Atlantis T3 dC18 reverse phase HPLC column (20 mm×2.1 mm) at a flow rate of 0.5 mL/min. The mobile phase consisted of 0.1% formic acid in water (solvent A) and 0.1% formic acid in acetonitrile (solvent B).
(§3) The percentage of test compound bound to protein was calculated by the following equations:
(§4) % Free=(Concentration in buffer chamber/Concentration in plasma chamber)×100%

[1] = as above; type: in vitro ADME; conditions: mouse, plasma, pH 7.4, mouse plasma
Description: as §1, §2, §3, §4

Structure (SMILES) | affinity for GR (GR; in words) | selectivity for GR over other subfamily 3 nuclear hormone receptors (GR) | fold more potent than the agonist dexamethasone (GR) (GR) | Kd (GR; DU145 cells, 3H-dexamethasone, Reference = dexamethasone, read-out: Kd GR) [nM] | Kd (GR; read-out: Kd for GR) [nM] | recovery at 4 h, 2 μM (plasma protein) [%] | fraction unbound at 4 h, 2 μM ([1]; duplicate, read-out: % Bound (converted)) | fraction unbound at 4 h, 2 μM ([1]; read-out: % Bound Average (converted))
COc1cccc2c1-c1ccc3c(c1C(Cc1ccc([18F])cc1)O2)C(C)=CC(C)(C)N3 (racemic) [[18F]-YJH08, [^18F]-5-(4-fluorobenzyl)-10-methoxy-2,2,4-trimethyl-2,5-dihydro-1H-chromeno[3,4-f]quinoline] | sub nM | at least 100 fold | – | – | – | – | – | –
COc1cccc2c1-c1ccc3c(c1C(Cc1ccc(F)cc1)O2)C(C)=CC(C)(C)N3 (racemic) [YJH08, 5-(4-fluorobenzyl)-10-methoxy-2,2,4-trimethyl-2,5-dihydro-1H-chromeno[3,4-f]quinoline] | – | at least 100 fold | about 10 fold | 0.401 | ~0.4 | 100 | < 0.0001 | < 0.0001

Source: patent US20220280661A1, “GLUCOCORTICOID RECEPTOR RADIOLIGANDS AND METHODS FOR THEIR PREPARATION AND USE” (The Regents of the University of California, priority 2019, published 2022)
